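Protocol summary: plate cells (96-well), add compound at 5 concentrations, incubate 48 h, interpolate endpoints linearly. GI50 marks 50% less growth.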 The source made the active and inactive calls. Cut-off read from the data, not from the text of the source: active = GI50 up to about 1.1 µM and inactive = higher.

The record followed here is ChEMBL document CHEMBL1201862, “PubChem BioAssay data set” (2004).

Some test systems named below: 786-0; A549; CCRF-CEM; COLO 205; EKVX; HOP-62; IGROV-1; K562; KM12; NCI-H460; NCI/ADR-RES; OVCAR-4; OVCAR-8; SF-295; SN12C; T47D; UACC-62; UO-31; Malme-3M.
Holding throughout (assay): NCI tumour cell line growth inhibition, 48 h

On to `Cc1cccc2c(=O)c3cccc([C@@H](C)C(=O)O)c3oc12`, for which the GI50 in the assay on 786-0, in the assay on A549, in the assay with CCRF-CEM, with COLO 205, in the assay with EKVX and in the assay on HOP-62 was > 100 µM (inactive) throughout. For the same molecule, the GI50 with IGROV-1, in the assay on K562, in the assay with KM12, in the assay on NCI-H460, in the assay with NCI/ADR-RES and in the assay with OVCAR-4 was > 100 µM (inactive) in each case. The GI50 in the assay on OVCAR-8 was > 100 µM (inactive); in the assay on SF-295 it was > 100 µM (inactive); with SN12C, > 100 µM (inactive); in the assay with T47D, > 100 µM (inactive); with UACC-62, > 10 µM (inactive); with UO-31, > 100 µM (inactive).
Regarding `COC(C/C(=C/CO[Si](C(C)C)(C(C)C)C(C)C)C(=O)N(COCC[Si](C)(C)C)c1ccccc1I)OC`, the GI50 is 31.4 µM (inactive) in the assay on 786-0; 37.2 µM (inactive) in the assay on A549; 22.7 µM (inactive) in the assay on CCRF-CEM; 57.7 µM (inactive) in the assay on COLO 205; 50.9 µM (inactive) in the assay on HOP-62; 0.0247 µM (active) in the assay on IGROV-1. Further, the GI50 with K562 is > 100 µM (inactive); in the assay with KM12, 31.8 µM (inactive); in the assay on NCI-H460 it was 33.4 µM (inactive); in the assay with NCI/ADR-RES, > 100 µM (inactive); in the assay on OVCAR-4, 42.2 µM (inactive); with OVCAR-8 it was 89.5 µM (inactive). The GI50 was 4.58 µM (inactive) with SF-295; 71 µM (inactive) in the assay with SN12C; 32.6 µM (inactive) with T47D; 15.6 µM (inactive) in the assay with UACC-62; 55.3 µM (inactive) with UO-31.
Consider `CC(=O)N1CCOC12N=NC(C)(C)O2` (stereo unspecified), for which the GI50 with 786-0, in the assay with A549, in the assay on COLO 205, in the assay on EKVX, with HOP-62 and with IGROV-1 was > 100 µM (inactive) in each case. Besides, the GI50 in the assay with K562, with KM12, in the assay with Malme-3M, with NCI-H460, in the assay on NCI/ADR-RES and with OVCAR-4 was > 100 µM (inactive) each time. Also, the GI50 in the assay with OVCAR-8, with SF-295, with SN12C, in the assay on T47D, in the assay with UACC-62 and with UO-31 was > 100 µM (inactive) throughout.
Consider `C(=N/Nc1ccc(-c2nc3ccccc3[nH]2)cc1)/c1c(-c2ccccc2)[nH]c2ccccc12`, for which the GI50 with 786-0 was 0.465 µM (active); in the assay with CCRF-CEM it was 0.443 µM (active); in the assay on EKVX it was 3.16 µM (inactive); with HOP-62, 0.319 µM (active); with IGROV-1, 0.728 µM (active); in the assay on K562 it was 0.176 µM (active). The GI50 was 0.4 µM (active) with KM12; 0.315 µM (active) in the assay with NCI-H460; 0.286 µM (active) with NCI/ADR-RES; 2.78 µM (inactive) in the assay with OVCAR-4; 0.698 µM (active) in the assay on OVCAR-8; 0.294 µM (active) with SF-295. Also, the GI50 was 28.8 µM (inactive) in the assay with T47D and 0.405 µM (active) with UO-31.
`CC(=O)Oc1ccc2c(c1)O/C(=C\c1ccc(O)cc1)C2=O`: the GI50 with 786-0, in the assay with A549, in the assay on CCRF-CEM, with COLO 205, with EKVX and in the assay on HOP-62 was > 100 µM (inactive) in each case. Further, the GI50 in the assay on IGROV-1, in the assay with K562, in the assay on KM12, in the assay with NCI-H460, in the assay with NCI/ADR-RES and with OVCAR-4 was > 100 µM (inactive) each time. The GI50 in the assay on OVCAR-8, in the assay with SF-295, in the assay on SN12C, with T47D, in the assay with UACC-62 and with UO-31 was > 100 µM (inactive) throughout.
Regarding `N#CCCC1(CCC#N)CCCCCCCCC(CCC#N)(CCC#N)C(=O)C1=O`, the GI50 with 786-0 is > 100 µM (inactive); in the assay with A549, > 100 µM (inactive); in the assay on COLO 205 it was > 100 µM (inactive); in the assay on EKVX, > 100 µM (inactive); in the assay on HOP-62 it was > 100 µM (inactive); in the assay with K562, 83.9 µM (inactive). Moreover, the GI50 in the assay with KM12, with Malme-3M, in the assay on NCI-H460, in the assay on NCI/ADR-RES, in the assay with OVCAR-4 and with OVCAR-8 was > 100 µM (inactive) in each case. The GI50 with SF-295 is > 100 µM (inactive); in the assay on SN12C, > 100 µM (inactive); with T47D, 36.6 µM (inactive); in the assay on UACC-62, > 100 µM (inactive).
Consider `COc1ccc(CN2C(=O)CCC/C=C\[C@H]2CI)cc1`, for which the GI50 in the assay on 786-0 is 14 µM (inactive); in the assay on A549, 10 µM (inactive); with COLO 205, 13.9 µM (inactive); in the assay with EKVX, 10.7 µM (inactive); in the assay with HOP-62, 16 µM (inactive); in the assay on IGROV-1, 15.6 µM (inactive). For the same molecule, the GI50 in the assay with K562 is 6.97 µM (inactive); in the assay with KM12, 11 µM (inactive); in the assay with Malme-3M, 11.1 µM (inactive); in the assay with NCI-H460, 13.1 µM (inactive); in the assay with NCI/ADR-RES, 13.7 µM (inactive); in the assay with OVCAR-4, 10.9 µM (inactive). In addition, the GI50 was 14.4 µM (inactive) in the assay with OVCAR-8; 13.5 µM (inactive) in the assay with SF-295; 14 µM (inactive) in the assay on SN12C; 0.286 µM (active) with T47D; 10.8 µM (inactive) in the assay on UACC-62; 11.6 µM (inactive) in the assay with UO-31.
For the molecule `CC1=NN(c2nc(N)nc(CF)n2)C(C)(C)C1`, the GI50 with 786-0, with CCRF-CEM, in the assay with COLO 205, in the assay on EKVX, in the assay with HOP-62 and in the assay with IGROV-1 was > 100 µM (inactive) throughout. For the same molecule, the GI50 in the assay with K562 was 49.3 µM (inactive); with KM12 it was > 100 µM (inactive); in the assay with NCI-H460 it was > 100 µM (inactive); in the assay on NCI/ADR-RES, > 100 µM (inactive); with OVCAR-4, > 100 µM (inactive); with OVCAR-8 it was > 100 µM (inactive). The GI50 in the assay with SF-295, with T47D, in the assay on UACC-62 and with UO-31 was > 100 µM (inactive) each time.
With `Cc1c2c(n(Cc3ccccn3)c1C)NN=C(C#N)S2(=O)=O`, the GI50 with 786-0, in the assay on A549, with COLO 205, with EKVX, in the assay on HOP-62 and with IGROV-1 was > 100 µM (inactive) each time. The GI50 with KM12, in the assay on NCI-H460, with NCI/ADR-RES, in the assay with OVCAR-4, in the assay on OVCAR-8 and in the assay on SF-295 was > 100 µM (inactive) in each case. Further, the GI50 in the assay with SN12C, in the assay with T47D, in the assay with UACC-62 and in the assay with UO-31 was > 100 µM (inactive) in each case.
